According to patent US6733971B2, “Method for identifying an agent that affects a hedgehog signaling pathway” (priority 1998, dated 2004):

What was measured:
[1] = system: SV40 enhancer; assay: Constitutively active SV40 enhancer luciferase reporter (specificity control); assay type: cell-based; conditions: 5 nM (data not shown)
[2] = system: HNF3β and Isl-1; assay: SHH induction of HNF3β and Isl-1 in chick embryo neurotube explant; assay type: cell-based
Text: Most of the components identified so far in the HH signaling pathway are conserved from Drosophila to vertebrates. The phosphatase activity found in cl-8 cells may also be conserved in vertebrates. Sonic HH (SHH), the vertebrate homolog of HH, induced the floor plate marker hepatocyte nuclear factor 3β (HNF3) and motor neuron marker islet-1 (Is1-1) in the developing neurotube. In chick embryo neurotube explant, exogenously provided SHH induced the expression of HNF3β and Isl-1.

[3] = system: ShhRE; assay: EMSA of Shh-induced protein binding to radiolabeled ShhRE, P19 nuclear extracts; assay type: cell-based, mouse; conditions: 5 nM, 1.0 nM Shh-N, 24 hours
Description: Methods described in Example 6 were used in addition to the following protocols. P19 cells were treated with or without Shh-N for 24 hours and nuclear extracts were obtained and used in an electrophoretic mobility shift assay (EMSA) with radiolabeled ShhRE. The following oligos were used as competitors or probes in these assays; WT ShhRE—GTTCTACATAATGCGCCG—SEQ ID NO:1; mShhRE—GTTCTACgTgATGCGCCG—SEQ ID NO:3; GliRE—[…]—. SEQ ID NO:4, Different amounts of unlabeled Gli response element (GliRE) (FIG. 5C, lane 3, 100X; lane 4, 50X; lane 5, 25X; and lane 6, 10X) or ShhRE (lane 7; 100X, lane 8; 50X and lane 9; 10X) was used as a competitor at the indicated molar excess.
In EMSA, radiolabeled probe was incubated with the nuclear extracts (10 μg) along with 4 μg poly dG-dC in a binding reaction containing 10 mM Tris pH 7.5, 50 mM NaCl, 1 mM EDTA, 1 mM DTT, 0.1 mg/ml BSA, and 5% glycerol. Later the mixture was loaded onto a 5% polyacrylamide gel and the retarded complexes were separated-in 1× TBE buffer and analyzed using autoradiography.
P-19 cells were treated with phosphatase inhibitors to study the endogenous levels of COUP-TFII mRNA. […] Total RVA was isolated from these cells and 20 μg of RNA was used in a RNase protection assay as described above in Example 6. A region of the murine Cyclophilin A cDNA was used to generate riboprobe and was used as an internal control. P19 cells were co-treated with (FIG. 7C, lane 2, 4, 6, and 7) or without (FIG. 7C, lane 1, 3, and 5) 1.0 nM Shh-N and 5 nM OA (lane 3 and 4), 0.5 nM CyA (FIG. 7C, lane 5 & 6) or 5 nm NoA (FIG. 7C, lane 9). Cells were harvested after 24 hours of treatment and the nuclear extract was obtained for the binding reactions. Extracts were subjected to an EMSA as described earlier.

[4] = system: ShhRE reporter gene; assay: Shh-N mediated induction of ShhRE reporter gene activity; assay type: cell-based, mouse; conditions: 5 nM (data not shown)
Description: Methods described above in Example 6 were used in addition to the following protocols. P19 cells were transfected with a ShhRE-tkLUC reporter plasmid and three copies of a mutant element called mShhRE-tkLUC and treated with or without 1 nM Shh. Cell lysates were obtained after 30 hours and were later assayed for luciferase reporter activity. A graph (FIG. 5B) representing relative luciferase units per twenty μg (RLU/20 μg) was plotted using results obtained from three separate experiments (mean ±sd).

[5] = system: PP2B; conditions: cited from earlier work
[6] = system: Islet-1 and neurofilament (NFL); assay: Mouse neural tube explants, whole-mount immunostaining; assay type: cell-based; conditions: 5 nM for 24 hours
Description: Mouse embryos at embryonic day 9-9.5 were dissected in such a way as to remove surface ectoderm and somitic mesoderm and neural tubes were isolated from the level of rhombomere 8 in the rostral region to the first segmenting somite in the caudal region. Neural tubes were cultured for 24 hours, dorsal-side down on Millicell-CM membranes and overlayed with Matrigel™ containing 10 ng/ml NT-3, with L15 air in presence or absence of 5nM OA. The explants were subjected to whole-mount immunostaining using a monoclonal antibody raised against mouse Islet-1 (39.4D5) or neurofilament (NFL) was used to analyze any changes in Islet-1 and NFL expression.

[7] = system: PP1 and PP2A enzyme activity; assay: Protein phosphatase assay on nuclear extracts of control and Shh treated P19 cells; assay type: biochemical, mouse; conditions: 2 nM, 15 minutes at 30° C., nuclear extracts of 1 nM Shh treated P19 cells
Description: P19 cells were treated with or without 1 nM Shh for 36 hours and nuclear extracts from these cells were obtained as described earlier. A protein phosphatase assay system™ (Life Technologies, Bethesda) was used to quantitate the phosphatase activity present in the control and induced extracts. P19 cells were treated with or without 1 nM Shh for 36 hours and nuclear extracts from these cells were obtained and incubated with 2 nM OA or 4 nM Inh-2 protein for 15 minutes at 30° C. Results are expressed as mean±sd from three separate experiments.

[8] = system: GliRE; assay: GliRE-CAT reporter in P19 cells cotransfected with Shh expression plasmid; assay type: cell-based, mouse; conditions: 5 nM for 14 hours
Description: P19 cells were cotransfected with pBKCMV-Shh expression plasmid and a GliRECAT reporter plasmid (1 μg)as described earlier. Krishnan, V., et al., Mol. Endo., 11: 1458-1466, 1997. Cells cotransfected with pBKCMY-Shh or pBKCMV plasmid (200 ng) were treated with or without 5 nM OA for 14 hours and reporter gene activity was assayed as described earlier. Gorman, C. M., et al., Mol. and Cell. Biology, 2:1044-1051, 1982. Results are expressed as mean±sd from three separate experiments.

[9] = system: PP2C; conditions: cited from earlier work

SMILES: C=C1[C@@H](O)[C@@H]2O[C@]3(CC[C@H](/C=C/[C@@H](C)[C@@H]4CC(C)=C[C@@]5(O[C@H](C[C@@](C)(O)C(=O)O)CC[C@H]5O)O4)O3)CC[C@H]2O[C@@H]1[C@@H](O)C[C@H](C)[C@H]1O[C@@]2(CCCCO2)CC[C@H]1C [OA, okadaic acid]
- SV40 enhancer driven luciferase reporter gene activity [1]: did not effect
- induction of HNF3β and Isl-1 ([2]; 1 nM, 2.5 mg/ml of SHH): reduced the induction
- effect on induction of HNF3β and Isl-1 at higher SHH ([2]; 1 nM, 10 mg/ml of SHH): reversed
- induction of HNF3β and Isl-1 ([2]; 10 nM, 10 mg/ml of SHH): completely blocked the induction
- Shh-induced binding to radiolabeled ShhRE [3]: abolished
- Shh-N mediated induction of ShhRE reporter gene activity [4]: completely blocked
- effect on PP2B [5]: no effect
- neurofilament staining within the neural tube [6]: no effect
- levels of immunodetectable Is11 protein ([6]; 9.5 dpc mouse neural tube explants): significantly decreased
- Shh-induced phosphatase activity [7]: completely abolished
- Shh-enhanced GliRE-CAT reporter activity [8]: sensitive
- effect on PP2C [9]: no effect
